According to PubChem BioAssay (NCI):
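Growth conditions: 96-well plates. Treatment: test compound, 48 hours, 5 concentrations. Analysis: linear interpolation between bracketing concentrations; unreached endpoints set to highest concentration. TGI marks complete inhibition of growth.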

Key:
Experiment in all cases: DTP human tumour cell line panel, 48 h
U251 CNS = test system: U251 CNS
SW-620 colon = test system: SW-620 colon
LOX IMVI melanoma = test system: LOX IMVI melanoma
SK-MEL-5 melanoma = test system: SK-MEL-5 melanoma
HS 578T breast = test system: HS 578T breast
OVCAR-8 ovarian = test system: OVCAR-8 ovarian
CAKI-1 renal = test system: CAKI-1 renal
SK-MEL-28 melanoma = test system: SK-MEL-28 melanoma
KM20L2 colon = test system: KM20L2 colon
NCI/ADR-RES ovarian = test system: NCI/ADR-RES ovarian
HL-60(TB) leukemia = test system: HL-60(TB) leukemia
HCC-2998 colon = test system: HCC-2998 colon
CCRF-CEM leukemia = test system: CCRF-CEM leukemia
SF-539 CNS = test system: SF-539 CNS
SR leukemia = test system: SR leukemia
SK-OV-3 ovarian = test system: SK-OV-3 ovarian
TK-10 renal = test system: TK-10 renal
UO-31 renal = test system: UO-31 renal
UACC-62 melanoma = test system: UACC-62 melanoma
HOP-92 NSCLC = test system: HOP-92 NSCLC
BT-549 breast = test system: BT-549 breast
RXF 393 renal = test system: RXF 393 renal
DMS 114 small cell lung = test system: DMS 114 small cell lung
MDA-MB-231 breast = test system: MDA-MB-231 breast
OVCAR-4 ovarian = test system: OVCAR-4 ovarian
SN12C renal = test system: SN12C renal
HOP-62 NSCLC = test system: HOP-62 NSCLC
K-562 leukemia = test system: K-562 leukemia
DMS 273 small cell lung = test system: DMS 273 small cell lung
XF 498 CNS = test system: XF 498 CNS
DLD-1 colon = test system: DLD-1 colon
ACHN renal = test system: ACHN renal
RPMI-8226 leukemia = test system: RPMI-8226 leukemia
MOLT-4 leukemia = test system: MOLT-4 leukemia
COLO 205 colon = test system: COLO 205 colon
NCI-H226 lung = test system: NCI-H226 lung
HT29 colon = test system: HT29 colon
SK-MEL-2 melanoma = test system: SK-MEL-2 melanoma
A549 NSCLC = test system: A549 NSCLC
786-0 renal = test system: 786-0 renal
HCT-15 colon = test system: HCT-15 colon
SNB-19 CNS = test system: SNB-19 CNS
MDA-MB-435 = test system: MDA-MB-435
RXF-631 renal = test system: RXF-631 renal
KM12 colon = test system: KM12 colon
MDA-N = test system: MDA-N
IGROV1 ovarian = test system: IGROV1 ovarian
MCF7 breast = test system: MCF7 breast
M19-MEL melanoma = test system: M19-MEL melanoma
HCT-116 colon = test system: HCT-116 colon
T-47D breast = test system: T-47D breast
OVCAR-5 ovarian = test system: OVCAR-5 ovarian
DU-145 prostate = test system: DU-145 prostate
SF-268 CNS = test system: SF-268 CNS
LXFL 529 NSCLC = test system: LXFL 529 NSCLC
PC-3 prostate = test system: PC-3 prostate
OVCAR-3 ovarian = test system: OVCAR-3 ovarian
NCI-H460 lung = test system: NCI-H460 lung
UACC-257 melanoma = test system: UACC-257 melanoma
SNB-75 CNS = test system: SNB-75 CNS
MALME-3M melanoma = test system: MALME-3M melanoma
SNB-78 CNS = test system: SNB-78 CNS
HOP-18 NSCLC = test system: HOP-18 NSCLC
M14 melanoma = test system: M14 melanoma
NCI-H23 lung = test system: NCI-H23 lung
SF-295 CNS = test system: SF-295 CNS
EKVX NSCLC = test system: EKVX NSCLC
A498 renal = test system: A498 renal
NCI-H522 lung = test system: NCI-H522 lung

For `COC(=O)C1=C(C=O)C2C=CC1C2` (stereo not drawn), the TGI (U251 CNS) was > 100 µM, the TGI (SW-620 colon) was 62.6 µM and the TGI (LOX IMVI melanoma) was > 72.3 µM. For the same compound, the TGI (SK-MEL-5 melanoma) was > 100 µM, the TGI (HS 578T breast) was > 100 µM and the TGI (OVCAR-8 ovarian) was > 94 µM. The TGI (CAKI-1 renal) was > 56.2 µM, the TGI (SK-MEL-28 melanoma) was > 90.2 µM and the TGI (KM20L2 colon) was > 100 µM. The TGI (NCI/ADR-RES ovarian) was > 100 µM, the TGI (HL-60(TB) leukemia) was 50.6 µM and the TGI (HCC-2998 colon) was > 100 µM. For the same compound, the TGI (CCRF-CEM leukemia) was 55 µM, the TGI (SF-539 CNS) was > 100 µM and the TGI (SR leukemia) was > 100 µM. For the same compound, the TGI (SK-OV-3 ovarian) was > 100 µM, the TGI (TK-10 renal) was > 76 µM and the TGI (UO-31 renal) was > 100 µM. For the same compound, the TGI (UACC-62 melanoma) was > 100 µM, the TGI (HOP-92 NSCLC) was > 100 µM and the TGI (BT-549 breast) was > 100 µM. For the same compound, the TGI (RXF 393 renal) was > 100 µM, the TGI (DMS 114 small cell lung) was > 84.6 µM and the TGI (MDA-MB-231 breast) was > 100 µM. The TGI (OVCAR-4 ovarian) was > 100 µM, the TGI (SN12C renal) was > 90.1 µM and the TGI (HOP-62 NSCLC) was > 100 µM. The TGI (K-562 leukemia) was 74.5 µM, the TGI (DMS 273 small cell lung) was > 65.1 µM and the TGI (XF 498 CNS) was 65.3 µM. For the same compound, the TGI (DLD-1 colon) was 78.5 µM, the TGI (ACHN renal) was > 81.2 µM and the TGI (RPMI-8226 leukemia) was > 89.2 µM. For the same compound, the TGI (MOLT-4 leukemia) was 71.2 µM, the TGI (COLO 205 colon) was 66.3 µM and the TGI (NCI-H226 lung) was > 100 µM. The TGI (HT29 colon) was > 79.2 µM, the TGI (SK-MEL-2 melanoma) was > 100 µM and the TGI (A549 NSCLC) was > 100 µM. The TGI (786-0 renal) was > 100 µM, the TGI (HCT-15 colon) was 62.2 µM and the TGI (SNB-19 CNS) was > 100 µM. The TGI (MDA-MB-435) was > 100 µM, the TGI (RXF-631 renal) was > 100 µM and the TGI (KM12 colon) was > 100 µM. The TGI (MDA-N) was > 100 µM, the TGI (IGROV1 ovarian) was > 100 µM and the TGI (MCF7 breast) was > 100 µM. For the same compound, the TGI (M19-MEL melanoma) was > 70.3 µM, the TGI (HCT-116 colon) was > 76.3 µM and the TGI (T-47D breast) was > 100 µM. For the same compound, the TGI (OVCAR-5 ovarian) was > 100 µM, the TGI (DU-145 prostate) was > 100 µM and the TGI (SF-268 CNS) was > 100 µM. For the same compound, the TGI (LXFL 529 NSCLC) was 39.7 µM, the TGI (PC-3 prostate) was > 100 µM and the TGI (OVCAR-3 ovarian) was 95.5 µM. For the same compound, the TGI (NCI-H460 lung) was > 100 µM, the TGI (UACC-257 melanoma) was 71.3 µM and the TGI (SNB-75 CNS) was > 100 µM. For the same compound, the TGI (MALME-3M melanoma) was > 100 µM, the TGI (SNB-78 CNS) was > 100 µM and the TGI (HOP-18 NSCLC) was > 91.4 µM. For the same compound, the TGI (M14 melanoma) was 67.1 µM, the TGI (NCI-H23 lung) was > 100 µM and the TGI (SF-295 CNS) was > 100 µM. The TGI (EKVX NSCLC) was > 100 µM, the TGI (A498 renal) was > 100 µM and the TGI (NCI-H522 lung) was 61.4 µM.
With `Cc1ccccc1NC(=O)/C(=N/NC(=O)CC#N)C1C(=O)N(c2ccccc2)N=C1N` (stereo not drawn) the TGI (U251 CNS) was > 100 µM, the TGI (SW-620 colon) was > 100 µM and the TGI (LOX IMVI melanoma) was > 100 µM. The TGI (SK-MEL-5 melanoma) was > 100 µM, the TGI (OVCAR-8 ovarian) was > 100 µM and the TGI (CAKI-1 renal) was > 100 µM. For the same compound, the TGI (SK-MEL-28 melanoma) was > 100 µM, the TGI (KM20L2 colon) was > 100 µM and the TGI (HL-60(TB) leukemia) was > 100 µM. For the same compound, the TGI (HCC-2998 colon) was > 100 µM, the TGI (CCRF-CEM leukemia) was 88.9 µM and the TGI (SF-539 CNS) was > 100 µM. The TGI (SR leukemia) was > 100 µM, the TGI (SK-OV-3 ovarian) was > 100 µM and the TGI (TK-10 renal) was > 100 µM. For the same compound, the TGI (UO-31 renal) was > 100 µM, the TGI (UACC-62 melanoma) was > 100 µM and the TGI (HOP-92 NSCLC) was > 100 µM. The TGI (RXF 393 renal) was > 100 µM, the TGI (DMS 114 small cell lung) was > 100 µM and the TGI (OVCAR-4 ovarian) was > 100 µM. For the same compound, the TGI (SN12C renal) was > 100 µM, the TGI (HOP-62 NSCLC) was > 100 µM and the TGI (K-562 leukemia) was > 100 µM. The TGI (DMS 273 small cell lung) was > 100 µM, the TGI (XF 498 CNS) was > 100 µM and the TGI (DLD-1 colon) was > 100 µM. The TGI (ACHN renal) was > 100 µM, the TGI (RPMI-8226 leukemia) was > 100 µM and the TGI (MOLT-4 leukemia) was > 100 µM. The TGI (COLO 205 colon) was > 100 µM, the TGI (NCI-H226 lung) was > 100 µM and the TGI (HT29 colon) was > 100 µM. The TGI (SK-MEL-2 melanoma) was > 100 µM, the TGI (A549 NSCLC) was > 100 µM and the TGI (786-0 renal) was > 100 µM. The TGI (HCT-15 colon) was > 100 µM, the TGI (SNB-19 CNS) was > 100 µM and the TGI (RXF-631 renal) was > 100 µM. The TGI (KM12 colon) was > 100 µM, the TGI (IGROV1 ovarian) was > 100 µM and the TGI (M19-MEL melanoma) was > 100 µM. For the same compound, the TGI (HCT-116 colon) was > 100 µM, the TGI (OVCAR-5 ovarian) was > 100 µM and the TGI (SF-268 CNS) was > 100 µM. The TGI (LXFL 529 NSCLC) was > 100 µM, the TGI (OVCAR-3 ovarian) was > 100 µM and the TGI (NCI-H460 lung) was > 100 µM. For the same compound, the TGI (UACC-257 melanoma) was > 100 µM, the TGI (SNB-75 CNS) was > 100 µM and the TGI (MALME-3M melanoma) was > 100 µM. For the same compound, the TGI (SNB-78 CNS) was > 100 µM, the TGI (HOP-18 NSCLC) was > 100 µM and the TGI (M14 melanoma) was > 100 µM. The TGI (NCI-H23 lung) was > 100 µM, the TGI (SF-295 CNS) was > 100 µM and the TGI (EKVX NSCLC) was > 100 µM. The TGI (A498 renal) was > 100 µM and the TGI (NCI-H522 lung) was > 100 µM.
